Columns and labels:
[1] = tested on: enkephalinase; assay: enkephalinase inhibition, cleavage of N-suc-Ala-Ala-Phe-AMC by osteoblast-like cells, fluorescence; type: biochemical, rat or mouse; conditions: substrate N-succinyl-alanyl-alanylphenylalanyl-7-amido-4-methyl coumarin, 37° C., one hr
Description: One such model is described by Spillantini et al., 12 Eur. J. Pharmacol 142-150 (1986), which has been modified by Applicants. (Applicants' modification consists of using osteoblast-like cells, rather than human serum, as the source of enkephalin-degrading enzymes.) This model measures inhibition of the enkephalin-degrading enzyme "enkephalinase". According to Applicants' modified method, the source of the enkephalin-degrading enzymes i s rat osteoblast-like cells or mouse osteoblast-like cells (MC3T3-E1 cells). The substrate used is N-succinyl-alanyl-alanyl-phenylalanyl-7-amido-4-methyl coumarin (hereafter N-suc-Ala-Ala-Phe-AMC), which is known to be cleaved at the Ala-Phe peptide bond by enkephalinase. […] Aminopeptidase, which is known to specifically cleave only Phe-AMC (at the Phe-AM(peptide bond), is then added to the sample. Cleavage by aminopeptidase yields the metabolites AMC (fluorescent) and Phe. Fluorescence is then measured and is directly proportional to the amount of substrate degraded by enkephalinase.
Specifically, a test sample (containing enzyme and a putative enkephalinase inhibitor) and a control sample (containing only enzyme) are equilibrated. A quantified amount of substrate is then added to both samples. […] Fluorescence of the samples is then measured, greater fluorescence corresponding to greater degradation of the substrate by enkephalinase. […]

[2] = tested on: human subject with postmenopausal osteoporosis or low bone mass; assay: treatment of human subject with osteoporosis, vertebral density by dual-energy photon absorptiometry; type: in vivo
Description: A human subject weighing about 60 kg (132 lbs), suffering from postmenopausal osteoporosis, is treated by a method of this invention. Specifically, for two years, the enkephalin-degrading enzyme inhibitor DL-3-mercapto-2-benzylpropanoylglycine is administered orally, in a cyclical regimen, where each cycle consists of an active period of 28 days during which a tablet containing 160 mg of said inhibitor is administered each day, followed by a non-active period of 28 days during which the subject receives a daily supplement of calcium (1,000 mg/day), with repeat of cycle.
A human subject weighing about 60 kg (132 lbs), suffering from postmenopausal osteoporosis, is treated by a method of this invention. Specifically, for two years, the compound H-Tyr-D-Ala-Gly-Phe-D-Leu-OH ("DADLE") is administered to the subject, in a cyclical regimen, where each cycle consists of an active period of 28 days during which a solution containing 30 mg of DADLE is administered intravenously every day, followed by a non-active period of 28 days during which the patient receives a daily supplement of calcium (1,000 mg/day), with repeat of cycle.
A human subject weighing about 60 kg (132 lbs), suffering from postmenopausal osteoporosis, is treated by a method of this invention. Specifically, for two years, an enkephalin of the formula Tyr-D-Cys(S-t-butylthioether)-Gly-Phe-Leu-Thr(O-t-butylether) ("BUBUC") is administered to the subject, in a cyclical regimen, where each cycle consists of an active period of 28 days during which a solution containing 30 mg of BUBUC is intravenously administered each day, followed by a non-active period of 28 days during which the patient receives a daily supplement of calcium (1,000 mg/day), with repeat of cycle.
A human subject weighing about 60 kg (132 lbs), suffering from postmenopausal osteoporosis, is treated by a method of this invention. Specifically, for two years, the enkephalin secretagogue Tyr-Arg^1, is administered to the subject, in a cyclical regimen, where each cycle consists of an active period of 28 days during which a solution containing 30 mg of Tyr-Arg is intravenously administered each day, followed by a non-active period of 28 days during which the subject receives a daily supplement of calcium (1,000 mg/day), with repeat of cycle. […]
A human subject weighing about 60 kg (132 lbs), suffering from postmenopausal osteoporosis, is treated by a method of this invention. Specifically, each day for five years, the subject is administered 3 tablets, comprised as follows.
A human subject weighing about 60 kg (132 lbs) is evaluated approximately four years after spontaneous menopause, and is found to have low bone mass. The subject is then treated by a method of this invention to treat osteoporosis. Specifically, once each month for five years, the subject is administered, via intravenous injection, 5 ml of a solution comprised as follows.

For O=C(O)CNC(=O)C(CS)Cc1ccccc1 (racemic) [DL-3-mercapto-2-benzyl-propanoylglycine], the “inhibition of substrate degradation by enkephalinase (fluorescence vs control)” value [1] was “significantly inhibited substrate degradation by enkephalinase”, the “density of vertebrae / bone mass” value ([2]; Example 7: 3 tablets of 50.0 mg each day for five years) was “no significant loss in bone mass has occurred” and the “density of vertebrae / bone mass” value ([2]; oral tablet 160 mg daily, 28 days active / 28 days calcium, two years) was “an increase in bone mass”.

— patent US5403824A, “Methods for the treatment of osteoporosis” (The Procter & Gamble Company, priority 1993, dated 1995)
